Calls of active or inactive are those of the source. The calls are words filed in the database; no cut-off is given here.
Columns and labels:
[1] = Tmax in BALB/c mouse at 10 mg/kg, po; type: ADME, organism-based; conditions: in vivo
[2] = Half life in BALB/c mouse at 10 mg/kg, po; type: ADME, organism-based; conditions: in vivo
[3] = tested on: L929; assay: Anti-necroptosis activity against TSZ-induced mouse L929 cells; type: functional, cell-based
[4] = Half life in BALB/c mouse at 10 mg/kg, iv; type: ADME, organism-based; conditions: in vivo
[5] = Cmax in BALB/c mouse at 10 mg/kg, po; type: ADME, organism-based; conditions: in vivo
[6] = AUC (0 to t) in BALB/c mouse at 10 mg/kg, po; type: ADME, organism-based; conditions: in vivo, po, 10 mg/kg
[7] = Oral bioavailability in BALB/c mouse at 10 mg/kg; type: ADME, organism-based; conditions: in vivo; for bioavailability: BALB/c
[8] = Tmax in BALB/c mouse at 10 mg/kg, iv; type: ADME, organism-based; conditions: in vivo
[9] = Clearance in BALB/c mouse at 10 mg/kg, po; type: ADME, organism-based; conditions: in vivo, po, 10 mg/kg
[10] = target: T1, Receptor-interacting serine/threonine-protein kinase 1 (Homo sapiens, UniProt Q13546); assay: Inhibition of RIPK1 (unknown origin) in presence of ATP by kinaseProfiler assay
T1 sequence (Q13546 whole entry): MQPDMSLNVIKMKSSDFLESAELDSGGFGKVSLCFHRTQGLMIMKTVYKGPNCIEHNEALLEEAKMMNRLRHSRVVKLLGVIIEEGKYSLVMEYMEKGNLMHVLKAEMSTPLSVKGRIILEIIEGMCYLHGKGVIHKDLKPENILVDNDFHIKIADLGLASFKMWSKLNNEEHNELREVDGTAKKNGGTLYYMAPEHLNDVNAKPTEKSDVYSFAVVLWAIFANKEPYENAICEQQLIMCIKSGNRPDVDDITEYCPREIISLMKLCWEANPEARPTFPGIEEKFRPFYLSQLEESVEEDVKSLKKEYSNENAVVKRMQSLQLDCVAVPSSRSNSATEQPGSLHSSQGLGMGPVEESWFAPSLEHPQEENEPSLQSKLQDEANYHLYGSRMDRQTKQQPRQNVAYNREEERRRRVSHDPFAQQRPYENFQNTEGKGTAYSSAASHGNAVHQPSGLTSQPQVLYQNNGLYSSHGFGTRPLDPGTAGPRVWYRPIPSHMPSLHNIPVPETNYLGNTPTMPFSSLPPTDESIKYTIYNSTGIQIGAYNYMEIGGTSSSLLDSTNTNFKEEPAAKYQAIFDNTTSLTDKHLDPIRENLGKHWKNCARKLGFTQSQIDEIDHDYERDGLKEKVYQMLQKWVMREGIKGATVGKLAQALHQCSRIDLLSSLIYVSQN

[11] = tested on: HT-29; assay: Anti-necroptosis activity against TSZ-induced human HT-29 cells; type: functional, cell-based
[12] = Apparent volume of distribution in BALB/c mouse at 10 mg/kg, po; type: ADME, organism-based; conditions: in vivo
[13] = Metabolic stability in cryopreserved human liver microsome assessed as half life; type: ADME; conditions: cryopreserved liver microsomes
[14] = Apparent volume of distribution in BALB/c mouse at 10 mg/kg, iv; type: ADME, organism-based; conditions: in vivo, read-out: Vz
[15] = AUC (0 to t) in BALB/c mouse at 10 mg/kg, iv; type: ADME, organism-based; conditions: in vivo, iv, 10 mg/kg
[16] = Cmax in BALB/c mouse at 10 mg/kg, iv; type: ADME, organism-based; conditions: in vivo
[17] = Clearance in BALB/c mouse at 10 mg/kg, iv; type: ADME, organism-based; conditions: in vivo
[18] = tested on: U-937; assay: Anti-necroptosis activity against TSZ-induced human U-937 cells; type: functional, cell-based
[19] = tested on: Mus musculus; assay: In vivo anti-necrotptic activity in SIRS mouse model assessed as protection from body temperature loss at 10 mg/kg, po measured upto 6 hrs; type: functional, organism-based
[20] = Half life in BALB/c mouse at 5 mg/kg, iv; type: ADME, organism-based; conditions: in vivo
[21] = AUC (0 to t) in BALB/c mouse at 5 mg/kg, iv; type: ADME, organism-based; conditions: in vivo
[22] = Cmax in BALB/c mouse at 5 mg/kg, iv; type: ADME, organism-based; conditions: in vivo
[23] = Tmax in BALB/c mouse at 5 mg/kg, iv; type: ADME, organism-based; conditions: in vivo

IC50 [10] [nM]	half-life [13] [min]	SMILES	EC50 [3] [nM]	EC50 [11] [nM]	EC50 [18] [nM]	other results
125	119	Nc1n[nH]c(=O)c2c1c(-c1ccc3c(c1)CCN3C(=O)Cc1cccc(C(F)(F)F)c1)cn2CC1CC1	1.17	6.01	1.88	Tmax [1]: 8.4 min; t1/2 ([2]; po, 10 mg/kg): 1259 min; half-life [4]: 1260 min; Cmax [5]: 45.5 ng/mL; AUCt [6]: 2048.56 ng·h/mL; F ([7]; po, 10 mg/kg): 22.49%; Tmax [8]: 120 min; CL [9]: 48.7 mL/min/kg; Vz [12]: 2.8 L/kg; Vd [14]: 91 L/kg; AUCt [15]: 2048.56 ng·h/mL; Cmax [16]: 45.5 ng/mL; clearance [17]: 48.7 mL/min/kg
64.3	26.6	CC(C)=CCn1nc(-c2ccc3c(c2)CCN3C(=O)Cc2cccc(OC(F)(F)F)c2)c2c(N)n[nH]c(=O)c21	1.38	11.3	22.7	
81.6	16.5	CCC1(Cn2nc(-c3ccc4c(c3)CCN4C(=O)Cc3cccc(OC(F)(F)F)c3)c3c(N)n[nH]c(=O)c32)COC1	6.67	18.4	4.64	
		CN1C(=O)[C@@H](NC(=O)c2n[nH]c(Cc3ccccc3)n2)COc2ccccc21 [GSK2982772]	1260	2.78	1.27	Activity [19]: Active
120	21.1	CCCn1nc(-c2ccc3c(c2)CCN3C(=O)Cc2cccc(OC(F)(F)F)c2)c2c(N)n[nH]c(=O)c21	1.42	6.84	0.46	
149	28.2	Nc1n[nH]c(=O)c2c1c(-c1ccc3c(c1)CCN3C(=O)Cc1cccc(OC(F)(F)F)c1)nn2Cc1ccccc1	14.3	108	117	
79.8	13.2	CC1(Cn2nc(-c3ccc4c(c3)CCN4C(=O)Cc3cccc(OC(F)(F)F)c3)c3c(N)n[nH]c(=O)c32)COC1	1.85	5.57	3.9	
44.7	19.6	CC(C)Cn1cc(-c2ccc3c(c2)CCN3C(=O)Cc2cccc(OC(F)(F)F)c2)c2c(N)n[nH]c(=O)c21	8.8	1.61	1.84	
109	> 120	Nc1n[nH]c(=O)c2c1c(-c1ccc3c(c1)CCN3C(=O)Cc1cccc(OC(F)(F)F)c1)cn2CC1CC1	1.62	5.78	3.68	
80.5	17.8	COCCn1nc(-c2ccc3c(c2)CCN3C(=O)Cc2cccc(OC(F)(F)F)c2)c2c(N)n[nH]c(=O)c21	1.08	4.45	8.29	
98.7	26.4	CC1(Cn2nc(-c3ccc4c(c3)CCN4C(=O)Cc3cccc(OC(F)(F)F)c3)c3c(N)n[nH]c(=O)c32)CC1	13.2	37.5	10.2	
84.5	31.9	Nc1n[nH]c(=O)c2c1c(-c1ccc3c(c1)CCN3C(=O)Cc1cccc(OC(F)(F)F)c1)nn2CC(F)F	9.84	16	14.6	
60.5	66.6	CCn1cc(-c2ccc3c(c2)CCN3C(=O)Cc2cccc(OC(F)(F)F)c2)c2c(N)n[nH]c(=O)c21	5.99	5.45	1.74	
66.1	26.8	CC(C)n1nc(-c2ccc3c(c2)CCN3C(=O)Cc2cccc(OC(F)(F)F)c2)c2c(N)n[nH]c(=O)c21	1.47	7.73	17.3	
42.7	> 120	CCn1nc(-c2ccc3c(c2)CCN3C(=O)Cc2cccc(OC(F)(F)F)c2)c2c(N)n[nH]c(=O)c21	9.79	16.1	4.45	bioavailability [7]: 4.36%
110	48.8	Nc1n[nH]c(=O)c2c1c(-c1ccc3c(c1)CCN3C(=O)Cc1cccc(OC(F)(F)F)c1)nn2CC1CC1	0.48	2.61	3.89	Tmax [1]: 60 min; half-life ([2]; BALB/c): 155 min; Cmax [5]: 1090 ng/mL; AUCt [6]: 6121.97 ng·h/mL; bioavailability [7]: 44.1%; half-life [20]: 702 min; AUC(0-t) [21]: 6930 ng·h/mL; Cmax [22]: 3290 ng/mL; Vz [12]: 6007.49 L/kg; Tmax [23]: 8.4 min
73.7	19.9	Nc1n[nH]c(=O)c2c1c(-c1ccc3c(c1)CCN3C(=O)Cc1cccc(OC(F)(F)F)c1)nn2CC1COC1	5.89	15.1	5.09	
